Assay results as given in BindingDB's records for doi:10.1016/j.bmcl.2009.07.043 (Wyeth Research, 2009).
pIC50: −log10 of the molar value.

Assay: Inhibition of human Src expressed in rat fibroblasts assessed as anchorage independent growth after 3 days

COc1cc(Nc2c(C#N)cnc3cc(-c4ncccc4CN4CCOCC4)ccc23)c(Cl)cc1Cl [4-(2,4-dichloro-5-methoxyphenylamino)-7-(3-(morpholinomethyl)pyridin-2-yl)quinoline-3-carbonitrile]
pIC50: < 5.00
